Measured values taken from patent US20030065015A1 (priority 2001, published 2003).
“And” between values parts separate entries of the source, which are not always exact repeats. Equal values may be shown once.

How the values were obtained:
[1] = pH=6
physchem = settings: pH 6
[2] = assay type: physicochemical; settings: pH 0

Row | Structure (SMILES) | partition coefficient [1] | logD (physchem) | Ko/a [2]
1 | C[n+]1ccccc1/C=N/O [2-PAM chloride, 2-[(hydroxyimino)methyl]-1-methylpyrdinium chloride] | 0.79 | -3.12 | 
2 | CN(C)C(=O)Oc1ccc[n+](C)c1.[Br-] [Pyridostigmine Bromide, 3-dimethylaminocarbonyloxy-N-methylpyridinium bromide] |  |  | 1.9 × 10^−3 and 2.3 × 10^−2 and 2.0 × 10^−2
